# Reference: PubChem BioAssay (NCI)
#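 Interpolation was linear, between the two tested concentrations surrounding the appropriate level; five concentrations were tested over 48 hours in 96-well plates. The concentration for full growth arrest is given as TGI.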
# Assays:
# Assay in all cases: NCI tumour cell line growth inhibition, 48 h
# [1] = tested on: OVCAR-8 ovarian
# [2] = tested on: HOP-62 NSCLC
# [3] = tested on: HT29 colon
# [4] = tested on: UO-31 renal
# [5] = tested on: NCI-H23 lung
# [6] = tested on: SF-295 CNS
# [7] = tested on: HCC-2998 colon
# [8] = tested on: MDA-MB-435
# [9] = tested on: U251 CNS
# [10] = tested on: MCF7 breast
# [11] = tested on: NCI-H226 lung
# [12] = tested on: SW-620 colon
# [13] = tested on: NCI-H460 lung
# [14] = tested on: CCRF-CEM leukemia
# [15] = tested on: MOLT-4 leukemia
# [16] = tested on: EKVX NSCLC
# [17] = tested on: IGROV1 ovarian
# [18] = tested on: NCI/ADR-RES ovarian
# [19] = tested on: PC-3 prostate
# [20] = tested on: K-562 leukemia
# [21] = tested on: OVCAR-5 ovarian
# [22] = tested on: COLO 205 colon
# [23] = tested on: SK-MEL-5 melanoma
# [24] = tested on: SN12C renal
# [25] = tested on: HL-60(TB) leukemia
# [26] = tested on: RXF 393 renal
# [27] = tested on: DU-145 prostate
# [28] = tested on: ACHN renal
# [29] = tested on: HCT-116 colon
# [30] = tested on: KM12 colon
# [31] = tested on: OVCAR-4 ovarian
# [32] = tested on: UACC-257 melanoma
# [33] = tested on: SF-539 CNS
# [34] = tested on: RPMI-8226 leukemia
# [35] = tested on: HCT-15 colon
# [36] = tested on: SK-MEL-2 melanoma
# [37] = tested on: SNB-75 CNS
# [38] = tested on: OVCAR-3 ovarian
# [39] = tested on: CAKI-1 renal
# [40] = tested on: MDA-N
# [41] = tested on: SF-268 CNS
# [42] = tested on: LOX IMVI melanoma
# [43] = tested on: A498 renal
# [44] = tested on: HS 578T breast
# [45] = tested on: SK-MEL-28 melanoma
# [46] = tested on: A549 NSCLC
# [47] = tested on: 786-0 renal
# [48] = tested on: MDA-MB-231 breast
# [49] = tested on: NCI-H522 lung
# [50] = tested on: HOP-92 NSCLC
# [51] = tested on: TK-10 renal
# [52] = tested on: BT-549 breast
# [53] = tested on: MALME-3M melanoma
# [54] = tested on: SR leukemia
# [55] = tested on: SK-OV-3 ovarian
# [56] = tested on: T-47D breast
# [57] = tested on: M14 melanoma
# [58] = tested on: UACC-62 melanoma
# [59] = tested on: SNB-19 CNS
smiles,measurement,setting,value
CC1(C)N=C2C(=O)c3c([nH]c4ccccc34)[C@]3(C)CCC1CC23 (stereo partly specified),TGI,[1],> 6.25 µM
same,TGI,[2],> 6.25 µM
same,TGI,[3],> 6.25 µM
same,TGI,[4],> 6.25 µM
same,TGI,[5],> 6.25 µM
same,TGI,[6],> 6.25 µM
same,TGI,[7],> 6.25 µM
same,TGI,[8],> 6.25 µM
same,TGI,[9],> 6.25 µM
same,TGI,[10],> 6.25 µM
same,TGI,[11],> 6.25 µM
same,TGI,[12],> 6.25 µM
same,TGI,[13],> 6.25 µM
same,TGI,[14],> 6.25 µM
same,TGI,[15],> 6.25 µM
same,TGI,[16],> 6.25 µM
same,TGI,[17],> 6.25 µM
same,TGI,[18],> 6.25 µM
same,TGI,[19],> 6.25 µM
same,TGI,[20],> 6.25 µM
same,TGI,[21],> 6.25 µM
same,TGI,[22],> 6.25 µM
same,TGI,[23],> 6.25 µM
same,TGI,[24],> 6.25 µM
same,TGI,[25],> 6.25 µM
same,TGI,[26],> 6.25 µM
same,TGI,[27],> 6.25 µM
same,TGI,[28],> 6.25 µM
same,TGI,[29],> 6.25 µM
same,TGI,[30],> 6.25 µM
same,TGI,[31],> 6.25 µM
same,TGI,[32],> 6.25 µM
same,TGI,[33],> 6.25 µM
same,TGI,[34],> 6.25 µM
same,TGI,[35],> 6.25 µM
same,TGI,[36],> 6.25 µM
same,TGI,[37],> 6.25 µM
same,TGI,[38],> 6.25 µM
same,TGI,[39],> 6.25 µM
same,TGI,[40],> 6.25 µM
same,TGI,[41],> 6.25 µM
same,TGI,[42],> 6.25 µM
same,TGI,[43],> 6.25 µM
same,TGI,[44],> 6.25 µM
same,TGI,[45],> 6.25 µM
same,TGI,[46],> 6.25 µM
same,TGI,[47],> 6.25 µM
same,TGI,[48],> 6.25 µM
same,TGI,[49],> 6.25 µM
same,TGI,[50],> 6.25 µM
same,TGI,[51],> 6.25 µM
same,TGI,[52],> 6.25 µM
same,TGI,[53],> 6.25 µM
same,TGI,[54],> 6.25 µM
CCN(CCCl)c1cc(CN(C)C)cc(NC(=O)c2ccc(C(=O)Nc3cccc(CN(C)C)c3)cc2)c1,TGI,[1],12.8 µM
same,TGI,[2],10.8 µM
same,TGI,[3],6.87 µM
same,TGI,[55],> 100 µM
same,TGI,[4],76.3 µM
same,TGI,[5],11.2 µM
same,TGI,[56],10.1 µM
same,TGI,[6],13.2 µM
same,TGI,[7],3.05 µM
same,TGI,[8],0.665 µM
same,TGI,[9],0.667 µM
same,TGI,[10],1 µM
same,TGI,[11],17.2 µM
same,TGI,[12],0.75 µM
same,TGI,[13],10.6 µM
same,TGI,[14],0.669 µM
same,TGI,[15],0.904 µM
same,TGI,[17],10 µM
same,TGI,[18],> 100 µM
same,TGI,[19],0.733 µM
same,TGI,[20],1.42 µM
same,TGI,[21],93.2 µM
same,TGI,[22],2.41 µM
same,TGI,[24],10.6 µM
same,TGI,[25],0.444 µM
same,TGI,[26],0.82 µM
same,TGI,[27],42.6 µM
same,TGI,[28],10.7 µM
same,TGI,[29],14.4 µM
same,TGI,[30],3.69 µM
same,TGI,[31],6.08 µM
same,TGI,[57],17.7 µM
same,TGI,[32],3.67 µM
same,TGI,[33],2.99 µM
same,TGI,[34],8.73 µM
same,TGI,[35],> 100 µM
same,TGI,[36],1.61 µM
same,TGI,[37],3.18 µM
same,TGI,[39],> 100 µM
same,TGI,[40],0.685 µM
same,TGI,[58],4.07 µM
same,TGI,[41],63.1 µM
same,TGI,[42],0.569 µM
same,TGI,[59],1.34 µM
same,TGI,[43],7.33 µM
same,TGI,[44],0.671 µM
same,TGI,[45],5.2 µM
same,TGI,[46],14.5 µM
same,TGI,[47],2.35 µM
same,TGI,[48],> 100 µM
same,TGI,[49],0.042 µM
same,TGI,[50],3.66 µM
same,TGI,[51],9.94 µM
same,TGI,[53],2.81 µM
same,TGI,[54],1.56 µM
O=[N+]([O-])c1cc(Cl)ccc1Sc1ccccc1,TGI,[1],> 100 µM
same,TGI,[2],> 100 µM
same,TGI,[3],> 100 µM
same,TGI,[55],> 100 µM
same,TGI,[4],> 100 µM
same,TGI,[5],> 100 µM
same,TGI,[56],> 100 µM
same,TGI,[6],> 100 µM
same,TGI,[7],> 100 µM
same,TGI,[8],> 100 µM
same,TGI,[9],> 100 µM
same,TGI,[10],> 100 µM
same,TGI,[11],> 100 µM
same,TGI,[12],> 100 µM
same,TGI,[13],> 100 µM
same,TGI,[14],> 100 µM
same,TGI,[15],> 100 µM
same,TGI,[16],> 100 µM
same,TGI,[17],> 100 µM
same,TGI,[18],> 100 µM
same,TGI,[19],> 100 µM
same,TGI,[20],> 100 µM
same,TGI,[21],> 100 µM
same,TGI,[22],> 100 µM
same,TGI,[23],> 100 µM
same,TGI,[24],> 100 µM
same,TGI,[25],> 100 µM
same,TGI,[26],> 100 µM
same,TGI,[27],> 100 µM
same,TGI,[28],> 100 µM
same,TGI,[29],> 100 µM
same,TGI,[30],> 100 µM
same,TGI,[31],> 100 µM
same,TGI,[57],> 100 µM
same,TGI,[32],> 100 µM
same,TGI,[33],> 100 µM
same,TGI,[34],> 100 µM
same,TGI,[35],> 100 µM
same,TGI,[36],> 100 µM
same,TGI,[37],87 µM
same,TGI,[38],> 100 µM
same,TGI,[39],> 100 µM
same,TGI,[40],> 100 µM
same,TGI,[58],> 100 µM
same,TGI,[41],> 100 µM
same,TGI,[42],> 100 µM
same,TGI,[59],> 100 µM
same,TGI,[43],> 100 µM
same,TGI,[44],> 100 µM
same,TGI,[45],> 100 µM
same,TGI,[46],> 100 µM
same,TGI,[47],> 100 µM
same,TGI,[48],> 100 µM
same,TGI,[49],> 100 µM
same,TGI,[50],> 100 µM
same,TGI,[51],> 100 µM
same,TGI,[52],> 100 µM
same,TGI,[53],> 100 µM
COc1ccc(NC(C)c2ccncc2)cc1 (stereo unspecified),TGI,[1],> 100 µM
same,TGI,[2],> 100 µM
same,TGI,[3],> 100 µM
same,TGI,[55],65 µM
same,TGI,[4],> 100 µM
same,TGI,[5],> 100 µM
same,TGI,[56],> 100 µM
same,TGI,[6],> 100 µM
same,TGI,[7],> 100 µM
same,TGI,[8],> 100 µM
same,TGI,[9],> 100 µM
same,TGI,[10],> 100 µM
same,TGI,[11],> 100 µM
same,TGI,[12],> 100 µM
same,TGI,[13],> 100 µM
same,TGI,[14],> 100 µM
same,TGI,[15],> 100 µM
same,TGI,[16],> 100 µM
same,TGI,[18],> 100 µM
same,TGI,[19],> 100 µM
same,TGI,[20],> 100 µM
same,TGI,[21],> 100 µM
same,TGI,[22],> 100 µM
same,TGI,[23],> 100 µM
same,TGI,[24],> 100 µM
same,TGI,[26],> 100 µM
same,TGI,[27],> 100 µM
same,TGI,[28],> 100 µM
same,TGI,[29],> 100 µM
same,TGI,[30],> 100 µM
same,TGI,[31],> 100 µM
same,TGI,[57],> 100 µM
same,TGI,[33],> 100 µM
same,TGI,[34],> 100 µM
same,TGI,[35],> 100 µM
same,TGI,[36],> 100 µM
same,TGI,[37],> 100 µM
same,TGI,[38],> 100 µM
same,TGI,[39],> 100 µM
same,TGI,[40],> 100 µM
same,TGI,[41],> 100 µM
same,TGI,[42],> 100 µM
same,TGI,[59],> 100 µM
same,TGI,[43],> 100 µM
same,TGI,[44],> 100 µM
same,TGI,[45],> 100 µM
same,TGI,[46],> 100 µM
same,TGI,[47],> 100 µM
same,TGI,[48],> 100 µM
same,TGI,[49],> 100 µM
same,TGI,[50],> 100 µM
same,TGI,[51],> 100 µM
same,TGI,[52],> 100 µM
same,TGI,[53],> 100 µM
